Experimental data published in EP1087941B9, “THIOLESTERS AND USES THEREOF” (THE UNITED STATES OF AMERICA, as represented by THE …, priority 1998, dated 1999).
“Also recorded” adds a separate entry of the source. Where two headings read alike, the source gives them in different places.

Legend:
CEM-SS cells = assay: cells; type: cell-based
Excerpt: One exemplary means to determine antiviral activity is with CEM-SS cells and virus (e.g., HIV-1RF) (MOI = 0.01) using the XTT (2,3-bis[2-methoxy- 4-nitro-5-sulfophenyl] -5- [(phenylamino)carbonyl]-2H-tetrazolium hydroxide) cytoprotection assay, as described by Rice (1993) PNAS 90:9721-9724, and Rice (1997) Antimicrob. Agents Chemother. 41:419-426. Briefly, cells are infected with HIV-1RF (or other virus to be tested) in the presence of various dilutions of test compounds (thiolesters and controls). The cultures are incubated for seven days. During this time control cultures without protective compounds (i.e., compounds with anti-viral activity) replicate virus, induce syncytia, and result in about 90% cell death. The cell death is measured by XTT dye reduction. XTT is a soluble tetrazolimn dye that measures mitochondrial energy output, similar to MTT. Positive controls using dextran sulfate (an attachment inhibitor) or 3'-Azido -2'-3'-dideoxythymidine, AZT (a reverse transcriptase inhibitor) are added to each assay. Individual assays are done in duplicate using a sister plate method.
Effective antiviral concentrations providing 50% cytoprotection (EC50), and cellular growth inhibitory concentrations causing 50% cytotoxicity (IC50) are calculated.

[1] = test system: fusion of the HL2/3 and MAGI-CCR-5 cells; assay: Fusion assay, HL2/3 and MAGI-CCR-5 co-culture with beta-galactosidase reporter; type: cell-based; conditions: for IC50: Table 7, read-out: Fusion I50
Protocol: Determination of the effect of the test compounds on viral fusion were carried out as follows. Briefly, HL2/3 cells stably expressing HIV-1 Tat and cell surface gp120 and MAGI-CCR-5 cells stably expressing CD4 and CCR5 on their cell surface, containing a β-galactosidase reporter gene under the control of the HIV-1 LTR were pretreated with test compound for 1 h at 37°C. After incubation, the cells were mixed in a 4 to 1 ratio (2 x 10^5 MAGI-CCR-5 to 8 x 10^5 HL2/3 cells) and co-cultured for 18 h at 37°C; cultures were fixed and stained with X-gal solution for β-galactosidase activity. Blue cells represented the Tat transactivation of the HIV-1 LTR upon fusion of the HL2/3 and MAGI-CCR-5 cells via the CD4/CCR5 co-receptor gp 120 interaction.

[2] = target: T1, Virion-associated NCp7 proteins from cell-free HIV-1MN (Human immunodeficiency virus type 1 group M subtype B, UniProt P05888); assay: Intravirion NCp7 cross-linking, non-reducing Western blotting
T1 construct: an attack on the mature NCp7 retroviral zinc fingers in the cell-free virus; endogenous in cells
Protocol: The interaction of zinc finger inhibitors, such as the thiolesters of the invention, with cell-free virus can result in modification of intravirion NCp7 protein and loss of infectivity. Virion-associated NCp7 proteins from cell-free HIV-1MN were treated with thiolester compounds 44 and 45. They were also evaluated by non-reducing Western blotting using HIV-1 NCp7-specific antibodies. […] Cross-linking by compound 45 was due to formation of intermolecular disulfide bonds because reduction with 2-mercaptoethanol (β-ME) completely reversed the gel retardation.
Virion cross linking was performed as described by Rice (1995) Science 270:1194-1197 and Turpin (1997) Antiviral Chem. Chemother. 8:60-67. Briefly, highly purified HIV-1 MN (11.8 µg total protein) was incubated for 2 hour with concentrations of compound. Virions were concentrated and residual compound was removed by centrifugation (18,000 x g, 1 h, 4°C). The viral pellet was solubilized in 0.5 M Tris-HCl,(pH 6.8), 50% glycerol, 8% SDS and 0.4% bromophenol blue and proteins resolved by Western blotting. Western blotting to detect the expression of HIV-1 proteins in U1 cells or virus pellets for virion cross-linking experiments was carried out as described by Turpin (1996) J. Virol. 70:6180-6189. Briefly, 50 µg of total cellular protein for U1 experiments or the total virion pellet (11.8 µg total viral protein) for NCp7 cross linking studies was resolved on 4 to 20% polyacrylamide gels in SDS with Tris-Glycine (Novex, San Diego CA). Samples for reduced gels were boiled for 5 min in the presence of 5% β-ME prior to loading. Resolved proteins were electroblotted on to polyvinylidene difluoride (PVDF) membranes, and HIV-1 specific proteins were detected using a mixture of goat anti- HIV-1 NCp7 and p24 or anti-NCp7 for virion proteins alone (a kind gift of L. E. Henderson, AIDS Vaccine Program NCI-FCRDC, Frederick, MD). Western blots were developed using standard chemiluminescence methodologies, as produced and described by Dupont-NEN, Wilmington, DE.
Purified concentrated retrovirus and antisera against the purified NC protein of the virus can be used to test the ability of a specific compound to penetrate the virus and react with the NC protein by forming disulfide complexes in the core of the virus. Compound are mixed with the whole retrovirus under reaction conditions appropriate for the compound. The virus is then removed from the reagent by centrifugation and disrupted in, e.g., standard SDS-PAGE sample buffer with (reduced) and without (non-reduced) 2-mercaptoethanol. […] Thus, compounds of interest (i.e., those which cause cross-linking), including the thiolesters of the invention, reduce the amount of monomeric zinc finger protein detected.

[3] = test system: HIV-1 replication in TNFα-induced U1; assay: Inhibition of p24 release from TNFα-induced U1 cells; type: cell-based
Protocol: Thiolester compounds were also tested for their ability to inhibit HIV-1 replication in TNFα-induced U1 and ACH-2 cells. U1 cells were induced with 5 ng/ml of TNFα in the presence of various concentrations of the thiolesters 44, 45 or 47. Forty-eight hours later the cultures were characterized for virus p24 antigen production and cell viability. […] Compound 44 killed 60% of the cells at 200 µM. […] Precursor processing evaluation performed as described by Turpin (1997) Antiviral Chem. Chemother. 8:60-69. Thus, thiolester PATEs initiate intracellular disulfide cross-linking of precursor polyproteins during late phase virus assembly and mediate a direct virucidal effect via an attack on the mature NCp7 retroviral zinc fingers in the cell-free virus.

[4] = Homo sapiens, CEM-SS, Table 5, 50% cytotoxicity, read-out: Antiviral Activity IC50%
[5] = Homo sapiens, CEM-SS, Table 6, 50% cytotoxicity, read-out: Antiviral Activity IC50
[6] = Human immunodeficiency virus 1, 5 ng/ml TNFα, 48 hours, read-out: inhibition of release of HIV-1 virions (p24) from U1 cells, EC50
[7] = Human immunodeficiency virus 1, Table 9, read-out: U1 Inhibition of p24 (EC50 µM)

Row | Compound | IC50 (CEM-SS cells; [4]) [µM] | IC50 (CEM-SS cells; [5]) [µM] | inhibition of fusion to host cells [1] | IC50 [1] [µM] | intravirion NCp7 cross-linking [2] | EC50 [3, 6] [µM] | EC50 [3, 7] [µM] | IC50 (CEM-SS cells; Table 10, 50% cytotoxicity, read-out: Antiviral Activity IC50%) [µM] | toxicity at the high test dose (CEM-SS cells; high test dose of 316 µM) | IC50 (CEM-SS cells; Homo sapiens, CEM-SS, read-out: Antiviral Activity IC50) [µM] | EC50 ([3]; Human immunodeficiency virus 1, 48 h, read-out: inhibition of release of HIV-1 virions (p24) from U1 cells, EC50) [µM] | EC50 ([3]; Human immunodeficiency virus 1, read-out: U1 Inhibition of p24 (EC50 µM)) [µM]
1 | CC(=O)NS(=O)(=O)c1ccc(NC(=O)c2ccccc2SC(=O)CCCCBr)cc1 [Compound 44, N-[2-(5-bromovaleroylthio)benzoyl]sulfacetamide] | 184 | 184 | did not inhibit | > 100 | very poor cross-linking agent | 94 | 94 |  |  |  |  | 
2 | CC(=O)NS(=O)(=O)c1ccc(NC(=O)c2ccccc2SC(=O)CCCC[n+]2ccccc2)cc1 [Compound 45, N-[2-(5-pyridinio-valeroylthio)benzoyl]sulfacetamide bromide] | > 316 | > 316 | did not inhibit | 77 | extensive cross-linking of NCp7; also recorded: strong cross-linker of intravirion NCp7 | 42.2 | 42.2 | > 316 | no toxicity |  |  | 
3 | O=C(CCCC[n+]1ccccc1)Sc1ccccc1C(=O)Nc1ccc(S(=O)(=O)c2ccc([N+](=O)[O-])cc2)cc1 [Compound 47] |  |  | did not inhibit | 99 | did not effectively initiate NCp7 cross-linking |  |  |  |  | > 316 | 10.7 | 10.7
